Assay results reported in PMC5458179, “Oxidative DNA double strand breaks and autophagy in the antitumor effect of sterically hindered platinum(II) complexes in NSCLCs” (Oncotarget, 2017).

Experiments:
HCT-116 = test: MTT cytotoxicity assay; assay type: cell-based, human; conditions: 48 h drug exposure
Experimental: (§1) The results reveal that the steric hindrance plays a significant role in the cytotoxicity of complex 3.
(§2) Human cancer cell lines HepG2, SGC-7901, HCT-116, A549, NCI-H1299 and MCF-7 as well as normal liver cell line L02 were purchased from the Cell Bank of Shanghai Institute of Cell Biology. Among them, MCF-7, HepG2 cells were cultured at 37 °C in 5% CO2 with DMEM supplemented with 10% fetal bovine serum (FBS) (Hyclone, Lifescience, USA) and 1% penicillin/streptomycin (Beyotime, Nantong, China), while HCT-116, SGC-7901, A549, NCI-H1299 and L02 cells were cultured at 37 °C in 5% CO2 with RPMI-1640 supplemented with 10% FBS and 1% penicillin/streptomycin. Cells were passed every 2 days and restarted from frozen stocks upon reaching pass number 20.
(§3) In vitro cytotoxicity of the platinum compounds against human hepatocellular carcinoma (HepG-2), gastric carcinoma (SGC-7901), non-small-cell lung cancer (A549), and colorectal cancer (HCT-116) cell lines were measured by the MTT assays. Briefly, the cells were seeded in 96-well cultured plates at a density of 5000 cells/well. After overnight incubation (16 h), the cells were treated with the platinum complexes. After 48 h of incubation, 10 μL of a freshly diluted 3-(4,5-dimethyl-2-thiazolyl)-2,5-diphenyl-2H-tetrazolium bromide (MTT) solution (5 mg/mL) were added to each well and the plates were incubated at 37 °C in a humidified 5% CO2 atmosphere for 4 h. At the end of the incubation period the medium was removed and the formazan product was dissolved in 150 μL of DMSO. The cell viability was evaluated by measurement of the absorbance at 490 nm, using an Absorbance Reader (BioRad). IC50 values (compound concentration that produces 50% of cell growth inhibition) were calculated from curves constructed by plotting cell survival inhibitory rate (%) versus drug concentration logarithm. All experiments were repeated in three times. The reading values were converted to the percentage of control (% cell survival). Cytotoxic effects were expressed as IC50 values.

HepG2 = test: MTT cytotoxicity assay; assay type: cell-based, human; conditions: 48 h drug exposure
Experimental: as §1, §2, §3

SGC-7901 = test: MTT cytotoxicity assay; assay type: cell-based, human; conditions: 48 h drug exposure
Experimental: as §1, §2, §3

p-Akt = test: Western blot of PI3K/Akt/mTOR pathway; assay type: cell-based, human; conditions: A549, 10 μM, 24 h, relative to control
Description: (§4) The mammalian target of rapamycin (mTOR) kinase is used to regulate autophagy as controlled though oxidative stress, hypoxia and growth receptors. The phosphatidylinosital-3 kinase (PI3K)/Akt signaling pathway activates mTOR through phosphorylating and inactivating the tuberous sclerosis complex (TSC)1–TSC2 complex. Inhibition of mTOR results in activation of autophagy. […] At the same time, levels of the p-Akt protein decreased to 0.95-, 1.02-, and 0.39-folds, respectively (Figure 7B). […] As a results, the administration of complex 3 decreased levels of proteins in PI3K/Akt/mTOR signaling pathways.
(§5) Lysates were centrifuged at 12,000 g for 0.5 h at 4°C. The concentrations of total proteins were measured using the BCA assay method with Varioskan spectrofluorometer and spectrophotometer (Thermo, Waltham, MA) at 562 nm. Protein (20–100 μg) prepared from the indicated cells was loaded per lane and electrophoresed in 8% or 10% sodium dodecyl sulfate polyacrylamide gel electrophoresis (SDS-PAGE), and then transferred onto polyvinylidene difluoride (PVDF) Immobilon-P membrane (Bio-Rad, USA) using a transblot apparatus (Bio-Rad, USA). The membranes were blocked with 5% (w/v) non-fat milk at 0.5 h at 37°C, followed by overnight incubation at 4°C with primary antibodies diluted in PBST. After washing with PBST, the membranes were incubated for 1 h with an IRDye´800 conjugated secondary antibody diluted 1:20000 in PBST, and the labeled proteins were detected with an Odyssey Scanning System (Li-COR., Lincoln, Nebraska, USA).

p-mTOR = test: Western blot of PI3K/Akt/mTOR pathway; assay type: cell-based, human; conditions: A549, 10 μM, 24 h, relative to control
Description: as §4, §5

A549 xenograft tumors = conditions: for tumor growth inhibition rate: 5 mg/kg i.v., complex 3 once every three days, oxaliplatin twice a week, tumor weight at end
Experimental: To evaluate the anti-tumor effect of complex 3 in vivo, an xenografts nude mice model of A549 cancer cells was performed. […] At the end of treatments, the tumor weight was measured to detect the antitumor activity of these measured groups. […] Because platinum-based drugs are well known for their toxic effects on the mean bodyweights of treated animals, the toxicity of complex 3 in the body weights of mice was assayed. […] The mice treated with the tested complex 3 were selected for histological analyses.
Thirty-five nude mice (BALB/c) with body weight range from 18–22 g, were supplied by Shanghai Laboratory Animal Center, China Academy of Sciences. Experimental protocols were in accordance with National Institutes of Health regulations and approved by the Institutional Animal Care and Use Committee. All animals were randomly divided into 5 groups. The A549 single-cell suspension in PBS (1×10^7 cells per mouse) was injected subcutaneously into the right oxter of nude mice. […] The control group was administered glucose. The tumor growth was monitored by measuring the perpendicular diameter of the tumor using calipers every two days and calculated according to the formula:
Tumor volume (mm^3) = 0.5 × length × width^2
Growth curves were plotted using the average tumor volume within each experimental group at the set time points. The whole group of mice was sacrificed after the last treatment, then tumor weight was evaluated as the antitumor activity of the corresponding groups, and the kidneys, livers and tumors were excised for immunohistochemistry analysis. The body weight and physical state of the mice were measured simultaneously as an indicator of systemic toxicity.

[1] = Blood stability test with rat plasma (ICP-MS); assay type: in vitro ADME; conditions: 37°C, 10 μM (method: 50 μM)
Experimental: Thus, we investigated the stability of complex 3 in rat plasma via ICP-MS measurement. Fresh rat plasma was added with a DMSO solution of complex 3 (10 μM). After incubation for 0, 2, 4 and 8 h at 37°C, the Pt content in rat plasma was measured by ICP-MS. […] This interaction contributes to the promising stability of complex 3 in rat plasma.
At varying time points (0, 2, 4 and 8 h) at 37°C, a 300 μL aliquot was removed from the incubating blood. The ICP-MS measurement was served to confirm the blood stability of complex 3 in rat plasma.

SMILES	IC50 (HCT-116) [µM]	IC50 (HepG2) [µM]	IC50 (SGC-7901) [µM]	levels of the p-Akt protein (p-Akt) [folds]	amounts of p-mTOR (p-mTOR) [folds]	tumor volumes (A549 xenograft tumors; 5 mg/kg i.v. once every three days)	tumor growth inhibition rate (A549 xenograft tumors) [%]	expressions of LC3 in tumor tissues (A549 xenograft tumors; immunoblotting)	bodyweights of mice during treatment (A549 xenograft tumors; mouse, in vivo)	t1/2 in rat plasma (stability) [1]
CC(C)C[NH+]1[C@@H]2CCCC[C@H]2[NH+](CC(C)C)[Pt-2]12[O]C(=O)CC(=O)[O]2 (some centres unmarked) [Complex 3]	38.6 ± 2.67	52.9 ± 4.37	38.6 ± 2.49	1.02	1.41	significantly decreased	67.96	increased expressions of LC3 in tumor tissues	increase of bodyweights	27.6 h
O=C1[O][Pt]2([NH][C@@H]3CCCC[C@H]3[NH]2)[O]C1=O [Oxaliplatin, oxaliplatin, reference compound]	19.1 ± 1.89	16.6 ± 0.56	24.2 ± 0.35	0.95	1.15		34.48			~ 13.1 h
